# According to PMC8659148, “Drug Repurposing for Influenza Virus Polymerase Acidic (PA) Endonuclease Inhibitor” (Molecules, 2021):
# Biological target: T1, PAN endonuclease domain from influenza A type virus (H1N1) (PAN, residues 1-197) (Influenza A virus, UniProt P03433)
# T1 construct: influenza A type virus (H1N1) (PAN, residues 1-197) was cloned; His tag (inferred from pET-28a vector and IMAC purification); made in house; host or cells: E. coli BL21 (DE3)
# Type: biochemical
# Details: ssDNA, 1 h, 37 °C; conivaptan 0–[…], dutasteride 0–1000 μM, rifaximin 0–1000 μM, lurasidone 0–3000 μM (Figure S1)
row,Compound,inhibition of the endonuclease activity of PAN (in words)
1,C[C@]12C=CC(=O)N[C@@H]1CC[C@@H]1[C@@H]2CC[C@]2(C)[C@@H](C(=O)Nc3cc(C(F)(F)F)ccc3C(F)(F)F)CC[C@@H]12 [dutasteride],no inhibition
2,CS(=O)(=O)c1cccc(C[C@H](NC(=O)c2c(Cl)cc3c(c2Cl)CCN(C(=O)c2ccc4ccoc4c2)C3)C(=O)O)c1 [lifitegrast],inhibitory effect
3,O=C1[C@@H]2[C@H]3CC[C@H](C3)[C@@H]2C(=O)N1C[C@@H]1CCCC[C@H]1CN1CCN(c2nsc3ccccc23)CC1 [lurasidone],no inhibition
4,CO[C@H]1/C=C/O[C@@]2(C)Oc3c(C)c(O)c4c(O)c(c5c(nc6cc(C)ccn65)c4c3C2=O)NC(=O)/C(C)=C\C=C\[C@H](C)[C@H](O)[C@@H](C)[C@@H](O)[C@@H](C)[C@H](OC(C)=O)[C@@H]1C [rifaximin],no inhibition
